Marks after values point to notes of the source that are not given here.
Tested on: Escherichia coli septic shock in dogs
Experiment: In-vivo model of Escherichia coli septic shock in dogs
Parameters: species or system dog
Settings: for PCO2: arterial; for Urine-volume: per hour
Source text: We have thus far studied 5 dogs in septic shock in which ethyl gallate was infused. We have compared the results obtained in this group with those found in septic animals (n=5) in which this treatment was not given. In addition, in preliminary experiments, we have looked at the effect of ethyl gallate infusion on hemodynamics in non-septic animals (n=3). In a time control non-septic group in which placebo (normal saline solution) was given, we have studied one animal.
The E coli model used in the studies was identical to that previously described (2). Sepsis was induced by the intravenous infusion of 10^10 colony forming units of live E coli (designation 011:B4). The bacteria were suspended in normal saline solution and were given over 0.5 hour. A constant infusion of approximately 5×10^9 colony forming units/hour of E coli was then maintained over the duration of the two studies.
The animals (16-24 kg) were initially anesthetized with thiopental sodium (20 mg/kg, intravenously) and constantly infused with sufentanil citrate (1-3 μg/min) and midazolam (5 μg/kg/min) (2). Drug rates were adjusted as required to abolish the palpebral reflex. The animals were placed in the supine position; the trachea was […] with an endotracheal tube; and the lungs were mechanically ventilated at a tidal volume of 20 ml/kg. The ventilator rate was initially set to maintain blood pH at approximately 7.35. The rate was increased as necessary to reverse the metabolic acidosis that developed over the course of the study. Approximately 100% oxygen was inspired, so that hypoxemia would not affect the results of the study.
Under sterile conditions and by percutaneous techniques (Arrow International, Reading, Pa.) (2), a thermister tipped catheter was advanced from the right jugular vein into the pulmonary artery to measure mean pulmonary arterial pressure (Ppa), mean pulmonary capillary wedge pressure (Pwp), mean right atrial pressure (Rap), and thermodilution cardiac output (CO) (Edwards Lifesciences, Irvine, Calif.). Another introducer was placed into the left jugular vein for administration of intravenous saline solution, the E coli infusion, and the treatment or placebo drugs. A catheter was placed into the bladder through the urethra to measure urine output over the course of the study. A polyethylene catheter was percutaneously placed into the femoral artery to measure MAP and to obtain samples of blood for arterial PO2, PCO2, pH, hematocrit (Hct), serum electrolytes and creatinine, liver function tests, and lactate concentrations. The laboratory tests were performed by the clinical laboratories at the Health Sciences Centre.
All vascular catheters were connected to transducers (Cobe, Argon Medical Devices Inc, Athens, Tex.), were referenced relative to the left atrium, and were connected to a chart recorder (Astro-Med, W Warwick, R.I.) (2). Heart rate (HR) was measured from the recorder tracing. Stroke-volume (SV) was calculated as CO/HR. Systemic vascular resistance (SVR) was calculated from [(MAP−Pra)/CO]*80.
Stroke work (SW) was our primary index of cardiac performance and the primary hemodynamic endpoint chosen (2). At constant preload, SW reflects both the decrease in afterload and the change in contractile function that accompany sepsis. SW was determined at approximately the same Pwp at each measurement interval. The baseline Pwp usually averaged ≈8-10 mmHg, and normal saline solution was given as necessary to maintain Pwp constant over the experimental period. SW was calculated from SV*(MAP−Pwp).
The purpose of this study was to determine whether ethyl-gallate could reverse the fall in MAP that occurs in this sepsis model. Ethyl gallate was infused after MAP pressure fell approximately 30 to 40% from the baseline value in which this decline in MAP was not responsive to volume infusion to return Pwp to the baseline value (septic shock condition). […]

[1] = septic dogs n = 5, 3 hrs post treatment
[2] = septic dogs n = 5, 5 hrs post treatment
[3] = septic dogs n = 5, Baseline (before sepsis and treatment)
[4] = septic dogs n = 5, septic shock (before treatment)
[5] = septic dogs n = 5, 1 hr post treatment
[6] = septic dogs n = 5, 2 hrs post treatment
[7] = septic dogs n = 5, 4 hrs post treatment
[8] = septic dogs, ethyl-gallate treated group

## CCOC(=O)c1cc(O)c(O)c(O)c1 [ethyl gallate]
2 gram intravenous bolus after 5 hours of septic shock, one animal
  duration of increase in mean arterial pressure after bolus: over 75 minutes
[1]
  PCO2: 21 ± 2*# mmHg
  Urine-volume: 42 ± 19 mL
  ALT: 210 ± 90 IU
  AST: 268 ± 162 IU
  Alk P'tase: 54 ± 36 international units
  Arterial pH: 7.21 ± .08*
  HR: 107 ± 34 beats/min
  LD: 253 ± 172* IU
  Platelets: 100 ± 37* ×10^9/L
  Ppa: 21 ± 6 mmHg
  Rap: 8.8 ± 0.8 mmHg
  WBC: 2.1 ± 1.9 ×10^9/L
  bilirubin: 11 ± 4.5* mmol/L
  chloride: 130 ± 6* mmol/L
  glucose: 4.4 ± 1.5 mmol/L
  sodium: 152 ± 5 mmol/L
  total CO2: 14 ± 2* mmol/L
[2]
  PCO2: 19 ± 2* mmHg
  Urine-volume: 36 ± 26 mL
  ALT: 236 ± 56 IU
  AST: 337 ± 141 IU
  Alk P'tase: 91 ± 39* international units
  Arterial pH: 7.14 ± .06*
  HR: 110 ± 34 beats/min
  LD: 335 ± 175* IU
  Platelets: 74 ± 21* ×10^9/L
  Ppa: 23 ± 7* mmHg
  Rap: 8.6 ± 1.3 mmHg
  WBC: 2.64 ± 2.3 ×10^9/L
  chloride: 130 ± 7* mmol/L
  glucose: 3.6 ± 2.2 mmol/L
  sodium: 153 ± 6 mmol/L
  total CO2: 14 ± 2* mmol/L
[3]
  PCO2: 29 ± 4 mmHg
  ALT: 52 ± 20 IU
  AST: 18 ± 4 IU
  Alk P'tase: 31 ± 11 international units
  HR: 59 ± 8* beats/min
  LD: 26 ± 4 IU
  Platelets: 196 ± 18 ×10^9/L
  Ppa: 16 ± 1.3 mmHg
  Rap: 9 ± 1.2 mmHg
  WBC: 3.2 ± 1.9 ×10^9/L
  chloride: 118 ± 3 mmol/L
  glucose: 5.5 ± 0.3 mmol/L
  sodium: 151 ± 2 mmol/L
  total CO2: 21 ± 3 mmol/L
[4]
  PCO2: 27 ± 4 mmHg
  Urine-volume: 45 ± 34 mL
  ALT: 139 ± 116 IU
  AST: 137 ± 130 IU
  Alk P'tase: 41 ± 27 international units
  Arterial pH: 7.26 ± .06*
  HR: 145 ± 33 beats/min
  LD: 128 ± 82 IU
  Platelets: 117 ± 27* ×10^9/L
  Ppa: 15 ± 2.3 mmHg
  Rap: 7 ± 1.3 mmHg
  WBC: 1.3 ± 0.7 ×10^9/L
  chloride: 123 ± 8*+ mmol/L
  glucose: 5.3 ± 0.3 mmol/L
  sodium: 150 ± 7+ mmol/L
  total CO2: 18 ± 2* mmol/L
Bolus after the study was completed, one animal of placebo group
  duration of increase in MAP after bolus: over 1 hr
Individual septic dog, FIG. 2
  time in which infusion increased arterial pressure: approximately 18 minutes
[5]
  Urine-volume: 67 ± 58 mL
  HR: 116 ± 47 beats/min
  Ppa: 18 ± 4.8 mmHg
  Rap: 8 ± 1.3 mmHg
[6]
  Urine-volume: 42 ± 19 mL
  HR: 111 ± 33 beats/min
  Ppa: 18 ± 5 mmHg
  Rap: 8.6 ± 1.7 mmHg
[7]
  Urine-volume: 36 ± 26 mL
  HR: 115 ± 36 beats/min
  Ppa: 21 ± 9 mmHg
  Rap: 9.2 ± 1.1 mmHg
Septic dogs
  dogs that died over the course of the study: None
Septic dogs, between the two groups
  urine output: no difference
Septic dogs, by 1 hour post-treatment, remained over the course of study
  mean arterial pressure (MAP): returned to the baseline value
Septic dogs, end of the study, vs non-ethyl gallate treated group
  serum haemoglobin concentration: higher
Septic dogs, ethyl gallate infusion
  time post infusion by which increase in MAP was evident: ≤ 20 min
[8]
  cardiac output (CO): did not fall
  stroke volume (SV): did not fall
Septic dogs, over the 5 post-treatment measurement intervals, vs non-treated group
  stroke work (SW): generally higher
Septic dogs, over the course of the study
  serum creatinine: decreased
Septic dogs, vs non-treated group
  creatine kinase (CK), evidence of rhabdomyolysis: less
Septic dogs, vs 4.7±0.8 L in non-treated group, P<0.05
  normal saline required to maintain Pwp at the baseline value: 3.38 ± 0.8 L
Septic dogs, vs septic shock condition and vs non-treated septic group
  systemic vascular resistance (SVR): significantly increased
